Test results: article PMC11125359 (Pharmaceuticals, 2024)
Like-named read-outs stand apart in the source and are kept apart here.

How the values were obtained:
[1] = molecular target: bovine serum albumin (BSA) (Bos taurus, UniProt P02769); settings: equal concentrations (1000 µg/mL); mean ± SE
[2] = Cytotoxic activity, MTT assay, normal lung (WI-38); format: cell-based; settings: human, WI-38 normal lung cells
[3] = test system: human colon cancer (Caco-2) cell line; assay: cells; format: cell-based
[4] = test system: α-amylase; assay: α-Amylase inhibition (anti-diabetic); format: biochemical; settings: equal concentrations (1000 µg/mL); mean ± SE
[5] = Iron-reducing power (IRP); settings: equal concentrations (1000 µg/mL); mean ± SE, three replicates
Protocol: All in vitro biological activities were assessed in the tested compounds at equal concentrations (1000 µg/mL). All assays were carried out in triplicate.
In vitro biological activities
The total antioxidant capacity (TAC) was determined by analyzing the green phosphate/Mo5+ complex at a wavelength (λ) of 695 nm, following the procedure described by Prieto
et al. Samples (at each concentration) were mixed with a reagent solution containing 0.3 N sulfuric
acid, 28 mM sodium phosphate, and 4 mM ammonium molybdate. Methanol (80%) was used in place
of the sample for the blank. The tubes were sealed and incubated in a boiling water bath for 90
minutes. After cooling to room temperature, the absorbance was measured at 695 nm against the
blank. Ascorbic acid was used at the same concentrations as a standard. The antioxidant capacity was
expressed as mg gallic acid equivalent per gram weight.
The iron reducing power was determined as µg/mL using the method proposed by Oyaizu
In brief, 1ml of the tested sample (at each concentration) was combined with 1mL of 200mM
sodium phosphate buffer (pH 6.6) and 1mL of 1% potassium ferricyanide. The mixture was then
incubated at 50°C for 20 minutes, followed by the addition of 1mL of trichloroacetic acid (10%). After
centrifugation at 2000rpm for 10 minutes, the upper layer solution (2.5 mL) was mixed with 2.5 mL of double deionized water and 1mL of fresh ferric chloride (0.1%). The absorbance was measured at
700nm against a blank prepared without the sample. Ascorbic acid was used at the same
concentrations as a standard. A high absorbance at 700nm indicates a higher reducing power in the
(§1) The 1,1-Diphenyl-2-picryl-hydrazyl (DPPH) radical scavenging activities were evaluated using the method described by Rahman et al. An antioxidant substance capable of donating a
(§2) hydrogen atom to a solution containing DPPH- can reduce the stable free radical, causing the solution
(§3) to change color from violet to pale yellow. The remaining DPPH- radical was quantified by
(§4) nm using a spectroscopic method. Two milliliters of a DPPH solution (100 µM) in ethanol were mixed
(§5) with 2 mL of the sample (at each concentration). The reaction mixture for each concentration was
(§6) thoroughly vortexed and then incubated in the dark at room temperature for 30 minutes. The
(§7) absorbance was then measured spectrophotometrically at 518 nm against a blank (ethanol). For the
(§8) control, 2 mL of ethanol was added instead of the sample and run simultaneously with the test.
(§9) Ascorbic acid was used at the same concentrations as a positive control. Percent inhibition of the
(§10) DPPH free radical was calculated. The median inhibitory concentration (IC 50) for each tested
The procedure for the 2,2'-azinobis-(3-ethylbenzothiazoline-6-sulfonic acid) (ABTS) assay
potassium persulfate solution (2.4 mM). The working solution was prepared by mixing the two stock
solutions in equal quantities and allowing them to react at room temperature in a dark place for 14
hours. The solution was then diluted by mixing 1 mL of ABTS solution with 60 mL of methanol to
was prepared for each assay. The tested samples (at each concentration) were allowed to react with 1
mL of the ABTS solution, and the absorbance was taken at 734 nm after 7 minutes using a
spectrophotometer. The ABTS scavenging capacities of the samples were compared with that of
ascorbic acid (at the same concentrations).

[6] = ABTS radical scavenging assay; settings: equal concentrations (1000 µg/mL); mean ± SE
[7] = test system: caspase-3; assay: Caspase-3 ELISA in treated Caco-2 cells; format: cell-based, human; settings: DMSO control 97.06 ± 0.14
[8] = test system: Bcl-2; assay: Bcl-2 ELISA in treated Caco-2 cells; format: cell-based, human; settings: DMSO control 7.99 ± 0.08
[9] = Total antioxidant capacity (TAC), phosphomolybdenum method; settings: equal concentrations (1000 µg/mL); mean ± SE, three replicates
[10] = test system: caspase-3; assay: Caspase-3 ELISA in treated A549 cells; format: cell-based, human; settings: DMSO control 85.92 ± 0.12
[11] = test system: human lung cancer (A549) cell line; assay: Cytotoxic activity, MTT assay, lung (A549)
Protocol: It will be assayed against human lung cancer (A549) and colon (Caco-2) cell line in
comparison with normal lung (WI-38) cell line using 3-(4,5-dimethythiazol-2-yl)-2,5-diphenyl
tetrazolium bromide (MTT) assay by determining the optical density (OD) at 570 nm according to the
The cells were dispensed in a 96-well sterile microplate (3
µL of each compound or doxorubicin (positive control, in DMSO) for 48 h in a serum free medium
prior to the MTT assay. Subsequently, the media were carefully removed, and 40 µL of MTT (2.5
mg/mL) was added to each well and then incubated for an additional 4 h. Purple formazan dye
crystals were solubilized by the addition of 200 µL of DMSO. The absorbance was measured at 570 nm using a SpectraMax Paradigm Multi-Mode microplate reader. The relative cell viability was
experiments were conducted in triplicate. Percent of the cell-growth inhibition (%) and the IC 50 was
calculated using IC 50 calculation software. The concentrations used for calculating the IC 50 depend on

[12] = test system: proteinase enzyme (trypsin); assay: Proteinase enzyme inhibition (anti-inflammatory); format: biochemical; settings: equal concentrations (1000 µg/mL); mean ± SE
[13] = DPPH radical-scavenging activity; settings: read-out: DPPH (IC50); mean ± SE, three replicates
Protocol: In vitro biological activities
as §1, §2, §3, §4, §5, §6, §7, §8, §9, §10

[14] = molecular target: acetylcholinesterase (AChE) (Homo sapiens, UniProt P22303); assay: biochemical; settings: same concentration (1000 µg/mL); mean ± SE
acetylcholinesterase (AChE), sequence (P22303 32-614, species assumed): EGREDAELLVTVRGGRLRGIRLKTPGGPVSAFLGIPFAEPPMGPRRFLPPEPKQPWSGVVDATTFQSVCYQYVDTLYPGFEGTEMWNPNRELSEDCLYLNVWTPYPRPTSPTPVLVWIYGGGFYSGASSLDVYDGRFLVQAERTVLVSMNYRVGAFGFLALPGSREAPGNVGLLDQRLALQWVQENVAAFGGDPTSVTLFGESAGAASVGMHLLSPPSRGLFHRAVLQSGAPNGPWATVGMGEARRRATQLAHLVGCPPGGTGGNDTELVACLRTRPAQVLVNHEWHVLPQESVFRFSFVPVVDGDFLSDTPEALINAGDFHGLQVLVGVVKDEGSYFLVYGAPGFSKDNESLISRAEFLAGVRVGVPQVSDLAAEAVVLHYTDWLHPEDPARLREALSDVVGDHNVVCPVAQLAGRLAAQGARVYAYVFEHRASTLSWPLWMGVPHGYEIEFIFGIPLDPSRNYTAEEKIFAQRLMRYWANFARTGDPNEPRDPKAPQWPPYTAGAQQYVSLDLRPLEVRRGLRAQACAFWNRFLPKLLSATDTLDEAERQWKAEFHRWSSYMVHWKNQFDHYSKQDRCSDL

[15] = test system: α-glucosidase; assay: α-Glucosidase inhibition (anti-diabetic); format: biochemical; settings: equal concentrations (1000 µg/mL); mean ± SE
[16] = test system: Bcl-2; assay: Bcl-2 ELISA in treated A549 cells; format: cell-based, human; settings: DMSO control 9.83 ± 0.05
[17] = Conc.: 5a 13.45, 5d 12.64, 5e 12.29, 5f 11.81, 7a 12.72, 7f 11.24, DOX 11.50
[18] = Conc.: 5a 26.91, 5d 25.27, 5e 24.58, 5f 23.63, 7a 25.43, 7f 22.48, DOX 23.00
[19] = Conc.: 5a 53.81, 5d 50.55, 5e 49.15, 5f 47.26, 7a 50.86, 7f 44.96, DOX 46.00
[20] = Conc.: 5a 107.63, 5d 101.09, 5e 98.31, 5f 94.51, 7a 101.72, 7f 89.93, DOX 91.99
[21] = Conc.: 5a 215.26, 5d 202.19, 5e 196.61, 5f 189.03, 7a 203.44, 7f 179.85, DOX 183.99

bovine serum albumin (BSA), sequence (P02769 25-607): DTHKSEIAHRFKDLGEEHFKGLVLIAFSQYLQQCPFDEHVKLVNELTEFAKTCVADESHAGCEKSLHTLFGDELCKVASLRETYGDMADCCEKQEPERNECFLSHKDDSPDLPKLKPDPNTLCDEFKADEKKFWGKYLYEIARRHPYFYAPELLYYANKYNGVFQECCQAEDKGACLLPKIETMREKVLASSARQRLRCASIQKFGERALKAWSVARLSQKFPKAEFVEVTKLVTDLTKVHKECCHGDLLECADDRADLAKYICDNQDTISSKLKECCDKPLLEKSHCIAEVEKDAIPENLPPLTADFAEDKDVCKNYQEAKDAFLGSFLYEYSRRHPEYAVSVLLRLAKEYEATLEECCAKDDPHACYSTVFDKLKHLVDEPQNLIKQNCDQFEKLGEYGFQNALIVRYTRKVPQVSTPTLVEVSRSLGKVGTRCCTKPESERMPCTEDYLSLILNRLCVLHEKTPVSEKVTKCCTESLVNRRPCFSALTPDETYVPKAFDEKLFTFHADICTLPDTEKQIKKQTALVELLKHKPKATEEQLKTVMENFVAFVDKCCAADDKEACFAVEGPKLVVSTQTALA

COc1ccc(Nc2n[nH]c(/N=C/c3ccc(N4CCCCC4)cc3)c2C(=O)Nc2ccccc2)cc1 [5d]
Inhibition (%) Protein Denaturation [1]: 27.79 ± 0.03% | viability at 48 h ([2]; Conc. as printed: 5a 53.81, 5d 50.55, 5e 49.15, 5f 47.26, 7a 50.86, 7f 44.96, DOX 46.00, read-out: Viability %, WI-38, 3rd concentration): 82.7% | viability at 48 h ([2]; Conc. as printed: 5a 107.63, 5d 101.09, 5e 98.31, 5f 94.51, 7a 101.72, 7f 89.93, DOX 91.99, read-out: Viability %, WI-38, 4th concentration): 76.8% | viability at 48 h ([2]; Conc.: 5a 13.45, 5d 12.64, 5e 12.29, 5f 11.81, 7a 12.72, 7f 11.24, DOX 11.50, read-out: Viability %, WI-38, 1st concentration): 98.7% | viability at 48 h ([2]; Conc.: 5a 26.91, 5d 25.27, 5e 24.58, 5f 23.63, 7a 25.43, 7f 22.48, DOX 23.00, read-out: Viability %, WI-38, 2nd concentration): 90.7% | viability at 48 h ([2]; Conc.: 5a 215.26, 5d 202.19, 5e 196.61, 5f 189.03, 7a 203.44, 7f 179.85, DOX 183.99, read-out: Viability %, WI-38, 5th concentration): 62.7% | IC50 at 48 h ([2]; 48 h, MTT, mean ± SE, read-out: Cytotoxic activity IC50, Normal Lung (WI-38)): 732 ± 10.5 µM | Viability %, Caco-2, 1st concentration [3, 17]: 70.71% | Viability %, Caco-2, 2nd concentration [3, 18]: 51.15% | Viability %, Caco-2, 3rd concentration [3, 19]: 40.54% | Viability %, Caco-2, 4th concentration [3, 20]: 26.77% | Viability %, Caco-2, 5th concentration [3, 21]: 23.43% | IC50 ([3]; Homo sapiens, Caco-2, 48 h, MTT, mean ± SE, read-out: Cytotoxic activity IC50, Colon (Caco-2)): 62.33 ± 0.14 µM | Therapeutic Index (TI), Colon (Caco-2) ([3]; IC50 on normal cells (WI-38)/IC50 on Caco-2): 11.73 | Inhibition (%) α-Amylase [4]: 32.37 ± 0.05% | Iron-Reducing Power (IRP) [5]: 35.51 ± 0.07 µg/mL | ABTS (%) inhibition [6]: 78.18 ± 0.05% | Caspase-3 level, Colon (Caco-2) [7]: 242.65 ± 0.36 pg/mL | Bcl-2 level, Colon (Caco-2) [8]: 3.20 ± 0.03 ng/mL | Total Antioxidant Capacity (TAC) [9]: 54.13 ± 0.20 mg Gallic Acid/g | Caspase-3 level, Lung (A549) [10]: 300.73 ± 0.42 pg/mL | Viability %, A549, 1st concentration [11, 17]: 90.46% | Viability %, A549, 2nd concentration [11, 18]: 79.41% | Viability %, A549, 3rd concentration [11, 19]: 48.01% | Viability %, A549, 4th concentration [11, 20]: 36.58% | Viability %, A549, 5th concentration [11, 21]: 18.10% | IC50 ([11]; Homo sapiens, A549, 48 h, read-out: Cytotoxic activity IC50, Lung (A549)): 48.61 ± 0.14 µM | Inhibition (%) Proteinase [12]: 24.17 ± 0.03% | IC50 [13]: 23.98 ± 0.01 µM | Inhibition (%) Acetylcholinesterase [14]: 62.11 ± 0.04% | inhibition at 1000 µg/mL [14]: 62 ± 0.04% | Inhibition (%) α-Glucosidase [15]: 27.84 ± 0.05% | Bcl-2 level, Lung (A549) [16]: 2.81 ± 0.01 ng/mL

Cc1nn(-c2ccccc2)c(Cl)c1C=Nc1[nH]nc(Nc2ccccc2)c1C(=O)Nc1ccccc1 [6a]
Inhibition (%) Protein Denaturation [1]: 15.33 ± 0.02% | Inhibition (%) α-Amylase [4]: 17.85 ± 0.03% | Iron-Reducing Power (IRP) [5]: 19.58 ± 0.04 µg/mL | ABTS (%) inhibition [6]: 43.12 ± 0.03% | Total Antioxidant Capacity (TAC) [9]: 29.86 ± 0.11 mg Gallic Acid/g | Inhibition (%) Proteinase [12]: 13.33 ± 0.02% | IC50 [13]: 43.35 ± 0.02 µM | inhibition at 1000 µg/mL [14]: 24.03 ± 0.01% | Inhibition (%) α-Glucosidase [15]: 15.35 ± 0.03%

Cc1ccc(NC(=O)c2c(Nc3ccccc3)n[nH]c2/N=C/c2ccc(N3CCCCC3)cc2)cc1 [5b]
Inhibition (%) Protein Denaturation [1]: 7.83 ± 0.01% | Inhibition (%) α-Amylase [4]: 9.12 ± 0.01% | Iron-Reducing Power (IRP) [5]: 10.01 ± 0.02 µg/mL | ABTS (%) inhibition [6]: 22.03 ± 0.01% | Total Antioxidant Capacity (TAC) [9]: 15.26 ± 0.06 mg Gallic Acid/g | Inhibition (%) Proteinase [12]: 6.81 ± 0.01% | IC50 [13]: 59.8 ± 0.03 µM | inhibition at 1000 µg/mL [14]: 12.28 ± 0.01% | Inhibition (%) α-Glucosidase [15]: 7.85 ± 0.01%

Cc1nn(-c2ccccc2)c(Cl)c1C=Nc1[nH]nc(Nc2ccccc2)c1C(=O)Nc1ccc(Cl)cc1 [6c]
Inhibition (%) Protein Denaturation [1]: 17.97 ± 0.02% | Inhibition (%) α-Amylase [4]: 20.92 ± 0.03% | Iron-Reducing Power (IRP) [5]: 22.95 ± 0.05 µg/mL | ABTS (%) inhibition [6]: 50.54 ± 0.03% | Total Antioxidant Capacity (TAC) [9]: 34.99 ± 0.13 mg Gallic Acid/g | Inhibition (%) Proteinase [12]: 15.62 ± 0.02% | IC50 [13]: 34.58 ± 0.02 µM | inhibition at 1000 µg/mL [14]: 28.16 ± 0.02% | Inhibition (%) α-Glucosidase [15]: 17.99 ± 0.03%

COc1ccc(Nc2n[nH]c(N=Cc3c(C)nn(-c4ccccc4)c3Cl)c2C(=O)Nc2ccccc2)cc1 [6d]
Inhibition (%) Protein Denaturation [1]: 15.62 ± 0.02% | Inhibition (%) α-Amylase [4]: 18.19 ± 0.03% | Iron-Reducing Power (IRP) [5]: 19.95 ± 0.04 µg/mL | ABTS (%) inhibition [6]: 43.93 ± 0.03% | Total Antioxidant Capacity (TAC) [9]: 30.42 ± 0.11 mg Gallic Acid/g | Inhibition (%) Proteinase [12]: 13.58 ± 0.02% | IC50 [13]: 40.11 ± 0.02 µM | inhibition at 1000 µg/mL [14]: 24.48 ± 0.01% | Inhibition (%) α-Glucosidase [15]: 15.64 ± 0.03%

Cc1ccc(NC(=O)c2c(Nc3ccccc3)n[nH]c2N=Cc2c(C)n(C)n(-c3ccccc3)c2=O)cc1 [7b]
Inhibition (%) Protein Denaturation [1]: 15.36 ± 0.02% | Inhibition (%) α-Amylase [4]: 17.88 ± 0.03% | Iron-Reducing Power (IRP) [5]: 19.62 ± 0.04 µg/mL | ABTS (%) inhibition [6]: 43.19 ± 0.03% | Total Antioxidant Capacity (TAC) [9]: 29.91 ± 0.11 mg Gallic Acid/g | Inhibition (%) Proteinase [12]: 13.35 ± 0.02% | IC50 [13]: 42.45 ± 0.02 µM | inhibition at 1000 µg/mL [14]: 24.07 ± 0.01% | Inhibition (%) α-Glucosidase [15]: 15.38 ± 0.03%

COc1ccc(Nc2n[nH]c(N=Cc3c(C)n(C)n(-c4ccccc4)c3=O)c2C(=O)Nc2ccccc2)cc1 [7d]
Inhibition (%) Protein Denaturation [1]: 15.59 ± 0.02% | Inhibition (%) α-Amylase [4]: 18.16 ± 0.03% | Iron-Reducing Power (IRP) [5]: 19.92 ± 0.04 µg/mL | ABTS (%) inhibition [6]: 43.85 ± 0.03% | Total Antioxidant Capacity (TAC) [9]: 30.36 ± 0.11 mg Gallic Acid/g | Inhibition (%) Proteinase [12]: 13.56 ± 0.02% | IC50 [13]: 40.53 ± 0.02 µM | inhibition at 1000 µg/mL [14]: 24.44 ± 0.01% | Inhibition (%) α-Glucosidase [15]: 15.61 ± 0.03%

Cc1ccc(NC(=O)c2c(Nc3ccccc3)n[nH]c2N=Cc2c(C)nn(-c3ccccc3)c2Cl)cc1 [6b]
Inhibition (%) Protein Denaturation [1]: 17.94 ± 0.02% | Inhibition (%) α-Amylase [4]: 20.89 ± 0.03% | Iron-Reducing Power (IRP) [5]: 22.91 ± 0.04 µg/mL | ABTS (%) inhibition [6]: 50.45 ± 0.03% | Total Antioxidant Capacity (TAC) [9]: 34.93 ± 0.13 mg Gallic Acid/g | Inhibition (%) Proteinase [12]: 15.60 ± 0.02% | IC50 [13]: 36.02 ± 0.02 µM | inhibition at 1000 µg/mL [14]: 28.11 ± 0.02% | Inhibition (%) α-Glucosidase [15]: 17.96 ± 0.03%
